# Test results: patent US12404303B2, “Polypeptide and use thereof” (NANJING ANJI BIOLOGICAL TECHNOLOGY CO., LTD., priority 2019, dated 2025)
# No end group written: not given here.
# Experiments:
# LX-2 cells = test: Proliferation of LX-2 cells induced by TGF-β1 (MTT, in vitro hepatic fibrosis model); assay type: cell-based; settings: polypeptide 1 μmol/L, TGF-β1 10 ng/mL, 48 hours
# Experimental: LX-2 cells were cultured in 1640 medium containing 10% FBS, and cultured in an incubator with 5% CO2 at 37° C. The medium was replaced every two days, and subcultured according to the cell density. The LX-2 cells in a logarithmic growth phase were digested with 0.25% pancreatin to make cell suspension. The density of the cells was adjusted to 4×10^5 cells/mL, and the cells were inoculated into 96-well plates with 100 μL per well and cultured overnight. On the second day, TGF-β1 was added to induce the proliferation and activation of the LX-2 cells, and the polypeptide drugs were administrated at 1 μmol/L. TGF-β1 (10 ng/mL) was added to each group except the blank group. The cells were cultured in the incubator for 48 hours, and then 10 μL of MTT was added to each well. The MTT was removed after 4 hours, and 150 μL of DMSO was added for reaction for 5 min. An OD value was measured by a microplate reader at 570 nm.
# adenovirus = test: Mouse pneumonia model, viral pneumonia; assay type: in vivo, BALB/C mice; settings: average values±standard deviation
# Text: (§1) A mouse pneumonia model was successfully established by using a nasal drip method. BALB/C mice with a body weight of 18-24 g were selected, and then anesthetized with ether on day 0, day 1 and day 2, respectively, prepared streptococcus pneumoniae bacteria solution, adenovirus concentrated solution, mycoplasma pneumoniae, chlamydia pneumoniae, protozoa and pneumonia fungi were slowly dropped into the nasal cavity of the mice, so that the bacteria solutions entered the trachea and bronchi, and the bacteria solutions were prevented from flowing into the esophagus during the operation to avoid inactivation of the bacteria solutions, so that the mouse pneumonia model was established. After the model was successfully established, the polypeptide according to the present disclosure was administered, as shown in FIG. 7 and Table 9. […] The experimental results are represented on the basis of average values±standard deviation.
# [1] = system: SD rats with bleomycin-induced pulmonary fibrosis; test: Bleomycin-induced pulmonary fibrosis animal model; assay type: in vivo; settings: bleomycin 5 mg/kg intratracheal, polypeptides 7.5 mg/kg subcutaneous twice a day, positive drug 25 mg/kg intragastric once a day, 14 days
# Experimental: SD rats were anesthetized by intraperitoneal injection of 1 mL/100 g 4% chloral hydrate. After anesthesia, the rats were fixed and their necks were disinfected by using cotton with 75% alcohol. The skin of the rat neck was longitudinally cut with scissors, and the fascia and muscle were longitudinally bluntly torn with tweezers to expose the trachea. A syringe was inserted into the trachea to inject 5 mg/kg bleomycin, while a blank group was injected with an equal amount of normal saline. Then a rat plate was quickly erected and rotated, the rats' breathing was observed, the neck wound was sterilized after rotation and was sewn, and an amoxicillin anti-inflammatory drug was sprinkled on the suture. After the operation, the rats were put back into a dry and clean cage for resting, waiting was performed for awakening. The rats were awakened after about 1-2 hours, and then fed normally. On the 7th day after modeling, modeling group animals randomly fell into a model group, a Nintedanib positive drug group, polypeptide I, II, III and IV dosage groups, and a normal control group, and the groups were administered separately for an administration cycle of 14 days. Living situations of rats were observed every day and their weights were weighed.
# chlamydia pneumoniae = test: Mouse pneumonia model, chlamydia pneumonia; assay type: in vivo, BALB/C mice; settings: average values±standard deviation
# Text: as §1
# [2] = system: cardiac fibroblasts of rats; test: Proliferation of cardiac fibroblasts of rats (MTT, in vitro myocardial fibrosis model); assay type: cell-based; settings: 1 μmol/L
# Experimental: The inhibitory effect of a polypeptide on cardiac fibroblasts of rats was detected by MTT assay. Cells were cultured in a DMEM medium containing 10% of FBS, the cytoplasm was made into 1×10^5/mL cell suspension, and 100 μL per well was inoculated into a 96-well plate. After the cells adhered to the wall, the medium was replaced with a serum-free DMEM medium, and the serum-free medium was discarded after 24 hours. The cells were cultured with different polypeptides of 1 μmol/L, and 5 multiple wells were set for each concentration. After 12, 24 and 48 hours separately, 10 μL of MTT was added to each well. After 4 hours, MTT was sucked out, and 150 μL of DMSO was added to each well. After reaction for 5 min, an OD value was measured at 570 nm by a microplate reader.
# mycoplasma pneumoniae = test: Mouse pneumonia model, mycoplasma pneumonia; assay type: in vivo, BALB/C mice; settings: average values±standard deviation
# Text: as §1
# streptococcus pneumoniae = test: Mouse pneumonia model, bacterial pneumonia; assay type: in vivo, BALB/C mice; settings: average values±standard deviation
# Text: as §1
# pneumonia fungi = test: Mouse pneumonia model, fungal pneumonia; assay type: in vivo, BALB/C mice; settings: average values±standard deviation
# Text: as §1
# [3] = system: SD rats with renal fibrosis; test: Renal fibrosis animal model (ureter ligation), TGF-β1 in serum; assay type: in vivo; settings: 7.5 mg/kg subcutaneous twice a day, 14 days, vs model group; FIG. 4
# Experimental: A renal fibrosis animal model was established. SD rats were anesthetized with 4% chloral hydrate, injected with 1 mL/100 g intraperitoneally, fixed to an operation board, and sterilized in an operation area for later use. […] Muscular layers and abdominal walls were sewed layer by layer, the suture was disinfected with alcohol. After SD rats woke up, the rats were put into a cage for feeding. In the blank group, ureter was not ligated, and other steps were the same. Then, the animals fell into a blank group, a model group, and polypeptide administration groups, and the administration was started on the second day after the operation, twice a day for 14 days. After administration for 14 days, blood was taken and supernatant was taken to detect the content of TGF-β1 in serum. [table]
# skin fibrosis model mice = test: Skin fibrosis model induced by bleomycin, HYP in skin tissue; assay type: in vivo, C57/BL black mice; settings: skin tissue of the mouse back; 10 mg/kg subcutaneous twice a day, 28 days, vs model group; FIG. 6
# Experimental: Bleomycin (10 μg/mL) was injected subcutaneously every day for 28 days to form skin fibrosis. During the modeling period, the administration groups were given polypeptide drugs every day for treatment, with 10 mice in each group. After modeling, the mice were killed on the next day, and the skin tissue of the mouse back was taken to detect the content of HYP in the skin tissue. [table]
# myelofibrosis model mice = test: Myelofibrosis model induced by rh EPO; assay type: in vivo, Kunming mice; parameters: WBC / Hb / MCV / RDW: unit not given here; settings: 10 mg/kg subcutaneous twice a day, 28 days
# Experimental: There were 10 mice in each group. The normal control group was injected with normal saline (0.3 mL for each mouse), and the remaining groups were injected with rh EPO (0.1 unit/gram, body weight, 0.3 mL for each mouse) intraperitoneally every day. After induction for two days, drug therapy was started, subcutaneous injection was given twice a day, and after continuous administration for 28 days, the mouse heart was punctured for blood extraction, some blood was used for peripheral blood analysis, some blood was centrifuged, and the supernatant was taken to measure the content of TGF-β1 in the serum of mice. [table]
# protozoa = test: Mouse pneumonia model, protozoal pneumonia; assay type: in vivo, BALB/C mice; settings: average values±standard deviation
# Text: as §1
# pulmonary infections = test: Mouse pneumonia model, pneumonia caused by pulmonary infections; assay type: in vivo, BALB/C mice; settings: average values±standard deviation
# Text: as §1
sequence,measurement,setting,value
RGADRAGGGGPRCYRGE [Polypeptide III],"inhibition of proliferation and activation of LX-2 cells, difference from model group",LX-2 cells,significantly different from the model group (*P<0.05)
same,OD value,"LX-2 cells; MTT, 570 nm",0.63 ± 0.03
same,"Inhibitory effect on pulmonary infections, Viral pneumonia",adenovirus,65.49 ± 9.94
same,Survival rate (%),[1],78.6%
same,"Inhibitory effect on pulmonary infections, Chlamydia pneumonia",chlamydia pneumoniae,54.40 ± 5.41
same,"Optical density values, 12 hours","[2]; 12 hours, MTT, 570 nm",0.329 ± 0.012
same,"Optical density values, 24 hours","[2]; 24 hours, MTT, 570 nm",0.402 ± 0.012
same,"Optical density values, 48 hours","[2]; 48 hours, MTT, 570 nm",0.612 ± 0.018
same,inhibition of the proliferation of cardiac fibroblasts of rats,[2]; at 24 hours and 48 hours,could inhibit the proliferation
same,"Inhibitory effect on pulmonary infections, Mycoplasma pneumonia",mycoplasma pneumoniae,43.93 ± 5.34
same,"Inhibitory effect on pulmonary infections, Bacterial pneumonia",streptococcus pneumoniae,42.29 ± 8.76
same,"Inhibitory effect on pulmonary infections, Fungal pneumonia",pneumonia fungi,62.88 ± 5.49
same,content of TGF-β1 in serum,[3],highly significantly different from the model group (**P<0.01)
same,expression of HYP in the skin tissue,skin fibrosis model mice,highly significantly different from the model group (*P<0.05)
same,content of TGF-β1 in serum,"myelofibrosis model mice; mouse serum, vs model group, FIG. 5",highly significantly different from the model group (**P<0.01)
same,Hb,myelofibrosis model mice; peripheral blood,145 ± 17
same,MCV,myelofibrosis model mice; peripheral blood,53 ± 8
same,RDW,myelofibrosis model mice; peripheral blood,28 ± 1
same,WBC,myelofibrosis model mice; peripheral blood,5.79 ± 1.23
same,"Inhibitory effect on pulmonary infections, Protozoal pneumonia",protozoa,64.29 ± 8.07
same,"Inhibitory effect on pulmonary infections, Pneumonia caused by pulmonary infections",pulmonary infections,56.18 ± 3.31
